Reference: patent publication US4218448A, “Antihypertensive polyfluorohydroxyisopropyl bicyclic and tricyclic carbostyrils” (E. I. Du Pont de Nemours and Company, priority 1977, dated 1980)

The compounds below were run on DOCA hypertensive rats (assay: Antihypertensive activity in DOCA hypertensive rats (oral), systolic arterial blood pressure). Conditions: Rattus norvegicus, 1.5 h; oral, groups of 8 DOCA hypertensive rats, usually 90 minutes after treatment; dose producing 30 mm Hg reduction in blood pressure vs controls (Effective Dose 30, ED30); read-out: ED50.
Type: in vivo
Experimental: Rats are made hypertensive by subcutaneous implantation of pellets of desoxycorticosterone acetate (DOCA) and by giving saline solution to drink essentially according to the method described by Sturtevant [Annals of Internal Medicine, 49, 1281 (1958)]. Graded dose levels of each compound are administered orally to groups of 8 hypertensive rats. The compound is prepared in an aqueous polyvinyl alcohol/acacia vehicle and administered at a volume to body weight ratio of 5.0 ml/kg. Sixteen hypertensive rats receiving the aqueous vehicle by the same route serve as controls for each test. At various intervals of time after treatment, usually 90 minutes, the systolic arterial blood pressure of each rat is determined by a modification of the microphone-manometer technique [Friedman, M. and Freed, S. C., Proc. Soc. Exp. Biol, and Med., 70, 670 (1949)]. […]
`Cc1cc(=O)n2c3c(cc(C(O)(C(F)(F)F)C(F)(F)F)cc13)C(C)CC2` (centres unmarked) was tested, and the ED (30 mm Hg) was 3.6 mg/kg.
For `Cc1cc(=O)n2c3c(cc(C(O)(C(F)(F)F)C(F)(F)F)cc13)C(C)C2` (centres unmarked), the ED (30 mm Hg) was 0.6 mg/kg.
`Cc1cc(=O)n2c3c(cc(C(O)(C(F)(F)F)C(F)(F)F)cc13)CCC2` [Example 1, 2,3-dihydro-9-[2,2,2-trifluoro-1-hydroxy-1-(trifluoromethyl)ethyl]-7-methyl-1H,5H-benzo[ij]quinolizin-5-one] was tested, and the ED (30 mm Hg) was 1 mg/kg.
`Cc1cc(=O)n2c3c(cc(C(O)(C(F)(F)F)C(F)(F)F)cc13)CCC2C` (centres unmarked) [Example 2, 2,3-dihydro-3,7-dimethyl-9-[2,2,2-trifluoro-1-hydroxy-1-(trifluoromethyl)ethyl]-1H,5H-benzo-[ij]quinolizin-5-one] gave an ED (30 mm Hg) of 0.66 mg/kg.
`CCc1cc(=O)n2c3c(cc(C(O)(C(F)(F)F)C(F)(F)F)cc13)CCC2` [Example 8, 2,3-dihydro-7-ethyl-9-[2,2,2-trifluoro-1-hydroxy-1-(trifluoromethyl)-ethyl]-1H,5H-benzo[ij]quinolizin-5-one] showed an ED (30 mm Hg) of 0.27 mg/kg.
Work on `Cc1c(Br)c(=O)n2c3c(cc(C(O)(C(F)(F)F)C(F)(F)F)cc13)CCC2` [Example 10] yielded an ED (30 mm Hg) of 9 mg/kg.
With `Cc1cc(=O)n2c3c(cc(C(O)(C(F)(F)F)C(F)(F)F)cc13)CC2` [Example 11, 1,2-dihydro-8-[2,2,2-trifluoro-1-hydroxy-1-(trifluoromethyl)ethyl]-6-methyl-4H-pyrrolo[3,2,1-ij]quinolin-4-one] the ED (30 mm Hg) was 0.13 mg/kg.
Compound `Cc1c([N+](=O)[O-])c(=O)n2c3c(cc(C(O)(C(F)(F)F)C(F)(F)F)cc13)CC2` [Example 12, 1,2-dihydro-8-[2,2,2-trifluoro-1-hydroxy-1-(trifluoromethyl)-ethyl]-6-methyl-5-nitro-4H-pyrrolo[3,2,1-ij]quinolin-4-one] has an ED (30 mm Hg) of 1.5 mg/kg.
In the case of `Cc1c(N)c(=O)n2c3c(cc(C(O)(C(F)(F)F)C(F)(F)F)cc13)CC2` [Example 13, 1,2-dihydro-8-[2,2,2-trifluoro-1-hydroxy-1-(trifluoromethyl)-ethyl]-5-amino-6-methyl-4H-pyrrolo[3,2,1-ij]quinolin-4-one], the ED (30 mm Hg) was 5.4 mg/kg.
With `Cc1cc(=O)n2c3c(cc(C(O)(C(F)(F)F)C(F)(F)F)cc13)CC2C` (centres unmarked) [Example 14, 1,2-dihydro-2,6-dimethyl-8-[2,2,2-trifluoro-1-hydroxy-1-(trifluoromethyl)-ethyl]-4H-pyrrolo[3,2,1-ij]quinolin-4-one] the ED (30 mm Hg) was 0.047 mg/kg.
With `CCc1cc(=O)n2c3c(cc(C(O)(C(F)(F)F)C(F)(F)F)cc13)CC2` [Example 22, 1,2-dihydro-6-ethyl-8-[2,2,2-trifluoro-1-hydroxy-1-(trifluoromethyl)ethyl]-4H-pyrrolo[3,2,1-ij]quinolin-4-one] the ED (30 mm Hg) was 0.11 mg/kg.
For `Cc1cc(=O)n2c3c(cc(C(O)(C(F)(F)F)C(F)(F)F)cc13)CCCC2` [Example 23, 5,6,7,8-tetrahydro-10-[2,2,2-trifluoro-1-hydroxy-1-(trifluoromethyl)ethyl]-1-methyl-3H-azepino[3,2,1-ij]quinolin-3-one], the ED (30 mm Hg) was 1.3 mg/kg.
`Cc1cc(=O)[nH]c2ccc(C(O)(C(F)(F)F)C(F)(F)F)cc12` [Example 24, 6-(2,2,2-trifluoro-1-hydroxy-1-(trifluoromethyl)ethyl)-4-methyl-2(1H)-quinolinone] was tested, and the ED (30 mm Hg) was 4.1 mg/kg.
In the case of `Cc1cc(=O)[nH]c2c(C)cc(C(O)(C(F)(F)F)C(F)(F)F)cc12` [Example 25], the ED (30 mm Hg) was 3.7 mg/kg.
`CCc1cc(C(O)(C(F)(F)F)C(F)(F)F)cc2c(C)cc(=O)[nH]c12` [Example 26] was tested, and the ED (30 mm Hg) was 1.3 mg/kg.
Compound `CCn1c(=O)cc(C)c2cc(C(O)(C(F)(F)F)C(F)(F)F)ccc21` [Example 31, 1-ethyl-6-[2,2,2-trifluoro-1-hydroxy-1-(trifluoromethyl)ethyl]-4-methyl-2(1H)-quinolinone] has an ED (30 mm Hg) of 1.2 mg/kg.
In the case of `Cc1cc(=O)n(C)c2ccc(C(O)(C(F)(F)F)C(F)(F)F)cc12` [Example 32], the ED (30 mm Hg) was 0.4 mg/kg.
`CCCCn1c(=O)cc(C)c2cc(C(O)(C(F)(F)F)C(F)(F)F)ccc21` [Example 34] gave an ED (30 mm Hg) of 5.2 mg/kg.
In the case of `O=c1ccc2cc(C(O)(C(F)(F)F)C(F)(F)F)cc3c2n1CCC3` [Example 42, 2,3-dihydro-9-[2,2,2-trifluoro-1-hydroxy-1-(trifluoromethyl)ethyl]-1H,5H-benzo[ij]quinolizin-5-one], the ED (30 mm Hg) was 3 to 9 mg/kg.
Work on `CCC(=O)OC(c1cc2c3c(c1)c(C)cc(=O)n3CC2)(C(F)(F)F)C(F)(F)F` [Example 43, 1,2-dihydro-8-[2,2,2-trifluoro-1-hydroxy-1-(tri-fluoromethyl)ethyl]-6-methyl-4H-pyrrolo[3,2,1-ij]quinolin-4-one propanoate] yielded an ED (30 mm Hg) of 0.22 mg/kg.
In the case of `CC(=O)OC(c1cc2c3c(c1)c(C)cc(=O)n3CC2)(C(F)(F)F)C(F)(F)F` [Example 44, 1,2-dihydro-8-[2,2,2-trifluoro1-hydroxy-1-(trifluoromethyl)ethyl]-6-methyl-4H-pyrrolo[3,2,1-ij]quinolin-4-one acetate], the ED (30 mm Hg) was 0.2 mg/kg.
In the case of `CCCCCCCCCCCC(=O)OC(c1cc2c3c(c1)c(C)cc(=O)n3CC2)(C(F)(F)F)C(F)(F)F` [Example 45, 1,2-dihydro-8-[2,2,2-trifluoro-1-hydroxy-1-(trifluoromethyl)ethyl]-6-methyl-4H-pyrrolo[3,2,1-ij]quinolin-4-one laurate], the ED (30 mm Hg) was 0.12 mg/kg.
`Cc1cc(=O)n2c3c(cc(C(OC(=O)c4ccccc4)(C(F)(F)F)C(F)(F)F)cc13)CC2` [Example 46] showed an ED (30 mm Hg) of 0.25 mg/kg.
With `COC(c1cc2c3c(c1)c(C)cc(=O)n3CC2)(C(F)(F)F)C(F)(F)F` [Example 50, 1,2-dihydro-8-[2,2,2-trifluoro-1-methoxy-1-(trifluoromethyl)-ethyl]-6-methyl-4H-pyrrolo[3,2,1-ij]quinolin-4-one] the ED (30 mm Hg) was 0.35 mg/kg.
With `CCOC(c1cc2c3c(c1)c(C)cc(=O)n3CC2)(C(F)(F)F)C(F)(F)F` [Example 51] the ED (30 mm Hg) was 0.5 mg/kg.
`Cc1cc(=O)n2c3c(cc(C(O)(C(F)F)C(F)(F)F)cc13)CC2` (centres unmarked) [Example 52, 1,2-dihydro-8-[2,2,-difluoro-1-hydroxy-1-(trifluoromethyl)ethyl]-6-methyl-4H-pyrrolo[3,2,1-ij]quinolin-4-one] showed an ED (30 mm Hg) of 0.075 mg/kg.
`Cc1cc(=O)n2c3c(cc(C(O)(C(F)(F)F)C(F)(F)Cl)cc13)CC2` (centres unmarked) [Example 53, 1,2-dihydro-8 [2-chloro-2,2-difluoro-1-hydroxy-1-(trifluoromethyl)ethyl]-6-methyl-4H-pyrrolo[3,-2,1-ij]quinolin-4-one] gave an ED (30 mm Hg) of 0.07 mg/kg.
For `Cc1cc(=O)n2c3c(cc(C(O)(C(F)F)C(F)F)cc13)CC2` [Example 54], the ED (30 mm Hg) was 1.2 mg/kg.

Same assay, conditions: Rattus norvegicus, po, 1.5 h, read-out: ED50
Work on `Cc1c(Cl)c(=O)n2c3c(cc(C(O)(C(F)(F)F)C(F)(F)F)cc13)CCC2` [Example 9, 6-chloro-2,3-dihydro-9-[2,2,2-trifluoro-1-hydroxy-1-(trifluoromethyl)ethyl]-7-methyl-1H,5H-benzo[ij]quinolizin-5-one] yielded an ED (30 mm Hg) of 1.6 mg/kg.
